Data: ChEMBL document CHEMBL1201862, “PubChem BioAssay data set” (2004)
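Where inhibition never reached the appropriate level, the endpoint shown equals the highest concentration tested. Otherwise, values were interpolated linearly from a five-concentration, 48-hour dose response in 96-well plates. GI50 = concentration required for 50% inhibition of growth.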 Active and inactive are the calls of the source. Rule as the data show it: active = GI50 up to about 1.1 µM and inactive = higher.

How the values were obtained:
Assay in all cases: inhibition of tumour cell growth, NCI panel, 48 h
SN12C = test system: SN12C
UACC-62 = test system: UACC-62
SF-539 = test system: SF-539
MCF7 = test system: MCF7
MDA-MB-435 = test system: MDA-MB-435
OVCAR-3 = test system: OVCAR-3
SR = test system: SR
HCT-116 = test system: HCT-116
HL-60 = test system: HL-60
EKVX = test system: EKVX
KM12 = test system: KM12
TK-10 = test system: TK-10
SF-268 = test system: SF-268
HOP-62 = test system: HOP-62
NCI-H226 = test system: NCI-H226
HCT-15 = test system: HCT-15
IGROV-1 = test system: IGROV-1
MOLT-4 = test system: MOLT-4
SW-620 = test system: SW-620
ACHN = test system: ACHN

Structure (SMILES) | GI50 (SN12C) | GI50 (UACC-62) | GI50 (SF-539) | GI50 (MCF7) | GI50 (MDA-MB-435) | GI50 (OVCAR-3) | GI50 (SR) | GI50 (HCT-116) | GI50 (HL-60) | GI50 (EKVX) | GI50 (KM12) | GI50 (TK-10) | GI50 (SF-268) | GI50 (HOP-62) | GI50 (NCI-H226) | GI50 (HCT-15) [µM] | GI50 (IGROV-1) | GI50 (MOLT-4) | GI50 (SW-620) | GI50 (ACHN)
CCOC(=O)C(CC#Cc1ccc(C#CCC(NC(C)=O)C(=O)OCC)cc1)NC(C)=O (stereo not given) | > 100 µM (inactive) | > 100 µM (inactive) | > 100 µM (inactive) | > 100 µM (inactive) | > 100 µM (inactive) | > 100 µM (inactive) | > 100 µM (inactive) | > 100 µM (inactive) | > 100 µM (inactive) | > 100 µM (inactive) | > 100 µM (inactive) | > 100 µM (inactive) | > 100 µM (inactive) | > 100 µM (inactive) | > 100 µM (inactive) | > 100 | > 100 µM (inactive) | > 100 µM (inactive) | > 100 µM (inactive) | > 100 µM (inactive)
C/C(=N\NC(=S)NCc1ccccc1)c1nc2cccnc2[nH]1 | 15.7 µM (inactive) | 6.53 µM (inactive) | 5.73 µM (inactive) | 3.53 µM (inactive) | 12.4 µM (inactive) | 11.1 µM (inactive) | 4.62 µM (inactive) | 3.69 µM (inactive) | 3.71 µM (inactive) | 2.88 µM (inactive) | 6.34 µM (inactive) | 15.2 µM (inactive) | 4.62 µM (inactive) | 6.85 µM (inactive) | 4.44 µM (inactive) | 4.45 | 8 µM (inactive) | 3.44 µM (inactive) | 9.66 µM (inactive) | 3.57 µM (inactive)
Cc1nc2c(Cl)cc(Cl)cc2c(Cl)c1CCCl | > 100 µM (inactive) | 79.6 µM (inactive) | > 100 µM (inactive) | > 100 µM (inactive) | 74.6 µM (inactive) | > 100 µM (inactive) | 79.1 µM (inactive) | 76 µM (inactive) | 55.2 µM (inactive) | 78.2 µM (inactive) | > 100 µM (inactive) | 32.4 µM (inactive) | 75.2 µM (inactive) | > 100 µM (inactive) | > 100 µM (inactive) | 60.5 | > 100 µM (inactive) | 55 µM (inactive) | > 100 µM (inactive) | > 100 µM (inactive)
Cc1ccc(O)c(Cc2nc3ccccc3nc2-c2cccc(Cl)c2)c1 | 55.2 µM (inactive) | 57.9 µM (inactive) | 87.1 µM (inactive) | 40.8 µM (inactive) | 21.4 µM (inactive) | 68.9 µM (inactive) | 24.7 µM (inactive) | 42.9 µM (inactive) | 42 µM (inactive) | 34.7 µM (inactive) | 59.6 µM (inactive) | 88.9 µM (inactive) | 97.5 µM (inactive) | > 100 µM (inactive) | 44.9 µM (inactive) | 15.4 | 35.2 µM (inactive) | 17.3 µM (inactive) | 59 µM (inactive) | 49 µM (inactive)
Nc1ccn(C=C=CCO)c(=O)n1 | > 100 µM (inactive) | > 100 µM (inactive) | > 100 µM (inactive) | > 100 µM (inactive) | > 100 µM (inactive) | > 100 µM (inactive) | 190 µM (inactive) | > 100 µM (inactive) | 48.9 µM (inactive) | > 100 µM (inactive) | > 100 µM (inactive) | > 100 µM (inactive) | > 100 µM (inactive) | > 100 µM (inactive) | > 100 µM (inactive) | > 100 | > 100 µM (inactive) | 5.85 µM (inactive) | > 100 µM (inactive) | > 100 µM (inactive)
O=C(c1ccccc1)c1ccc2nc3n(c2c1)C(c1c(F)cccc1F)SC3 (stereo not given) | 7.69 µM (inactive) | 4.47 µM (inactive) | 10.3 µM (inactive) | 3.85 µM (inactive) | 1.45 µM (inactive) | 4.9 µM (inactive) | 0.847 µM (active) | 3.26 µM (inactive) | 2.03 µM (inactive) | 3.56 µM (inactive) | 2.82 µM (inactive) | 22.9 µM (inactive) | 9.66 µM (inactive) | 8.81 µM (inactive) | 30.6 µM (inactive) | 3.16 | 5.05 µM (inactive) | 2.74 µM (inactive) | 3.18 µM (inactive) | 3.85 µM (inactive)
Cc1ccc(O)c(C(c2cc(C)ccc2O)c2cc([N+](=O)[O-])ccc2O)c1 | 14.7 µM (inactive) | 15.9 µM (inactive) | 15.7 µM (inactive) | 14.5 µM (inactive) | 15 µM (inactive) | 12.4 µM (inactive) | 8.43 µM (inactive) | 24.6 µM (inactive) | 3.42 µM (inactive) | 15.2 µM (inactive) | 7.74 µM (inactive) | 17.4 µM (inactive) | 7.62 µM (inactive) | 13.4 µM (inactive) | 14.4 µM (inactive) | 16.3 | 10.3 µM (inactive) | 6.12 µM (inactive) | 24.3 µM (inactive) | 13.2 µM (inactive)
